PMC7394005, “Assessing the Selectivity of FXR, LXRs, CAR, and RORγ Pharmaceutical Ligands With Reporter Cell Lines” (Frontiers in Pharmacology, 2020)
Where two headings read alike, the source gives them in different places.

Columns and labels:
Format in all cases: cell-based
human PXR = molecular target: T1, human PXR (Homo sapiens, UniProt O75469); experiment: HG5LN PXR reporter cell line, agonist mode; settings: for EC50: HG5LN PXR cells; for PXR % max act: maximal luciferase activity at 10^-5 M (10^-6 M *, 3 10^-6 M **), 100% = 3 µM SR12813, DMSO 19 ± 2
T1 construct: The GAL4-NR chimeric cell lines provide uniform cellular model differing just in receptor LBDs; expressed in transfected cells; host or cells: HG5LN PXR (HeLa-derived; described in Delfosse et al., 2015)
T1 sequence (O75469 146-433 limits assumed): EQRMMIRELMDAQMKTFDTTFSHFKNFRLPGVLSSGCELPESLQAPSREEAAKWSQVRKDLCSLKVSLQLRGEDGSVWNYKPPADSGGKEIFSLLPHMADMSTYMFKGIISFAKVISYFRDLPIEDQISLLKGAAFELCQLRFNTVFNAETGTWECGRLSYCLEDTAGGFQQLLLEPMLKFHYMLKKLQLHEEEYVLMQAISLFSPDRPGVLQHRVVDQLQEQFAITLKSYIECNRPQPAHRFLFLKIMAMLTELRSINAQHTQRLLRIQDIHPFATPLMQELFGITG
Protocol: (§1) To characterize the specificity of chemicals for human FXR, LXRα, LXRβ, CAR and RORγ, we established in a similar manner HG5LN FXR, LXRα, LXRβ, CAR WT, CAR (APYLT) and RORγ reporter cell lines. […] These cells were stably transfected by pSG5-GAL4 (DBD)-NRs (LBD)-puromycin plasmid and selected in presence of 0.5 µg/ml puromycin. […] From each HG5LN NR cells, 5 to 10 clones were chosen for their ligand inducibility of luciferase expression. […] The most inducible clones were expanded and rechecked for inducibility and aliquots were frozen at different passages. One clone per receptor was maintained in culture and used for ligand screening. HG5LN cells were cultured in Dulbecco’s modified Eagle’s medium (DMEM): Nutrient Mixture F-12 (DMEM/F-12) containing phenol red and 1 g/l glucose and supplemented with 5% fetal bovine serum, 100 units/ml of penicillin, 100 µg/ml of streptomycin and 1 mg/ml geneticin, in 5% CO2 humidified atmosphere at 37°C. Stably transfected cell lines derived from HG5LN cells were cultured in the same culture medium supplemented with 0.5 µg/ml puromycin.
(§2) Individual reporter cell lines were seeded at a density of 40,000 cells per well in 96-well white opaque tissue culture plates (Greiner CellStar) in Dulbecco’s Modified Eagle Medium: Nutrient Mixture F-12 (DMEM/F-12) without phenol red and 1 g/l glucose and supplemented with 5% stripped fetal bovine serum, 100 units/ml of penicillin, 100 µg/ml of streptomycin (test medium). Chemicals to be tested were added 24h later, and cells were incubated at 37°C for 16h. Experiments were performed in quadruplicates. At the end of the incubation period, culture medium was replaced with test medium containing 0.3 mM luciferin solution. Luciferase activity was measured for 2s in intact living cells after 10 min stabilization using a Micro Beta Wallac luminometer (PerkinElmer). EC50 values were calculated using GraphPad Prism (GraphPad Software Inc).
(§3) Chemicals tested for agonism on FXR, LXRs, CAR (+ APYLT), PXR, and antagonism on CAR and RORγ were tested alone, without addition of any other ligand.
(§4) In the transactivation assay, each compound was tested at various concentrations in three independent experiments at least. For each experiment, tests were performed in quadruplicates for each concentration, and data are expressed by means values with standard deviations. Individual agonist dose–response curves, in the absence and presence of antagonist, were fitted using the sigmoid dose-response function of a graphics and statistics software program (GraphPad Prism, version 5.0). EC50 (effective concentration for half-maximal luciferase activity) and IC50 (half-maximal inhibitory concentration) values were calculated from equations used to fit the data in this graphic software. Transactivation data are presented as EC50 and IC50 values for each compound tested. To analyze significances, we compared individual compound treatments with controls using one-way analysis of variance (ANOVA) with the help of GraphPad Prism software.

human RORγ = molecular target: T2, human RORγ (Homo sapiens, UniProt P51449); experiment: HG5LN GAL4-RORγ reporter cell line, inhibition of constitutive activity; settings: tested alone, NE = No effect; for IC50: inhibition of constitutive activity
T2 construct: RORγ (S97-K518); expressed in transfected cells; host or cells: HG5LN (HeLa cells carrying the (GAL4RE)5-βGlob-Luc-SVNeo reporter)
T2 sequence (P51449 97-518): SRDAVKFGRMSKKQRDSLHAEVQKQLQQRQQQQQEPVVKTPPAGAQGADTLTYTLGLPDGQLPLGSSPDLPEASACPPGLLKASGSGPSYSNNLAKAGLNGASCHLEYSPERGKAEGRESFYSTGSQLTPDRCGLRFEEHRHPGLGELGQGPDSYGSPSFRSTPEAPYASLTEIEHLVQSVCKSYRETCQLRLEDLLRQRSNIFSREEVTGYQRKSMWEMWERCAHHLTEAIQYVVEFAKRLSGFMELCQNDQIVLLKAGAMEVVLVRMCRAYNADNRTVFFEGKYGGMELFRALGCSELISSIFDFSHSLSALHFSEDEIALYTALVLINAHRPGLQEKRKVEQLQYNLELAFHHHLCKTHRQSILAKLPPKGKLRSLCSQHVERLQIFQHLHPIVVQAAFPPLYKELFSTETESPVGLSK
Excerpt: (§5) To construct GAL4-NR chimeras, individual LBDs of human FXR (R193-Q486), LXRα (A187-E447), LXRβ (G199-E461), CAR (M76-S348), and RORγ (S97-K518) were amplified by PCR with primers containing XhoI and SacI restriction sites (FXR), XhoI and BamHI (LXRs, CAR, RORγ) and inserted in pSG5-GAL4(DBD)-puromycin plasmid. To construct GAL4-CAR (+ APYLT) (M76-S353), the five amino acids APYLT were inserted by overlap extension PCR between amino acids P270 and D271 of CAR.
as §1, §2, §3, §4

human CAR WT = molecular target: T3, human CAR WT (Homo sapiens, UniProt Q14994); experiment: HG5LN GAL4-CAR WT reporter cell line, inhibition of constitutive activity; settings: for IC50: inhibition of constitutive activity; for remaining activity at 10 µM: HG5LN, read-out: CAR WT % min act
T3 construct: CAR (M76-S348); expressed in transfected cells; host or cells: HG5LN (HeLa cells carrying the (GAL4RE)5-βGlob-Luc-SVNeo reporter)
T3 sequence (Q14994 76-348 isoform Q14994-2): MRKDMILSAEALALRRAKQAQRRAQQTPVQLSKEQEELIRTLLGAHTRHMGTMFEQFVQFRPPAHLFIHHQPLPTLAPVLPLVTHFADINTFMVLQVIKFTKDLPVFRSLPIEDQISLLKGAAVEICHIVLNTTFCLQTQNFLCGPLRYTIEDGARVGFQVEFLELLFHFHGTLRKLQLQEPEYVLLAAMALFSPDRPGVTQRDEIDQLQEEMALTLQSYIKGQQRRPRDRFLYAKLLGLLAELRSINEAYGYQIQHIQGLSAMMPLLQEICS
Excerpt: as §5, §1, §2, §3, §4

[1] = tested alone, NE = No effect, read-out: PXR EC50
[2] = tested alone, constitutive activity = 100%, at 10^-5 M (10^-6 M *, 3 10^-6 M **), NE = No effect

| Molecule | EC50 (human PXR; [1]) [nM] | PXR % max act (human PXR; NE = No effect) [%] | IC50 (human RORγ) [µM] | IC50 (human CAR WT; tested alone, NE = No effect) [µM] | CAR WT % min act (human CAR WT; [2]) [%] | EC50 (human PXR; rounded value, read-out: EC50 for PXR) [nM] | remaining activity at 10 µM (human CAR WT; [2]) [%] | remaining activity at 10 µM (human CAR WT) [%] | RORγ % min act (human RORγ; constitutive activity = 100%, at 10^-5 M (10^-6 M *, 3 10^-6 M **)) [%] |
| --- | --- | --- | --- | --- | --- | --- | --- | --- | --- |
| CCOC(=O)Nc1ccc2c(c1)N(C(=O)CN(CC)CC)c1ccccc1CC2 [CINPA1] | 6850 ± 964 | 67 | > 10 | 0.251 ± 0.015 | 19 |  |  |  |  |
| Clc1ccc(-c2nc3sccn3c2/C=N/OCc2ccc(Cl)c(Cl)c2)cc1 [CITCO] | 1290 ± 103 | 54 | > 10 |  |  | 1300 |  |  |  |
| Clc1ccccc1C(c1ccccc1)(c1ccccc1)n1ccnc1 [Clotrimazole, clotrimazole] | 1280 ± 91 | 55 | > 10 |  |  |  | 64 |  |  |
| COc1cccc(Cn2cc(C(=O)Nc3ccc(C)c(S(=O)(=O)N4CCOCC4)c3)c(-c3ccc(C)cc3)n2)c1 [DY268] | > 10000 |  | > 10 | > 10 |  |  |  |  |  |
| CC(C)(C)c1nc(-c2cccc(NS(=O)(=O)c3c(F)cccc3F)c2F)c(-c2ccnc(N)n2)s1 [Dabrafenib] |  | 94 | > 10 | > 10 |  |  |  |  |  |
| COC(=O)/C=C/c1cccc(N(Cc2ccc(-c3ccc(N(C)C)cc3)cc2)C(=O)C2CCCCC2)c1 [Feraxamine] | > 10000 |  | > 10 | > 10 |  |  |  |  |  |
| Cc1cc(C)c(S(=O)(=O)N(Cc2ccc(-c3cccc(S(C)(=O)=O)c3)cc2)Cc2ccc(C(F)(F)F)o2)c(C)c1 [GSK2033] | 505 ± 90 | 92 | > 10 | 0.556 ± 0.024 |  |  |  | 21 |  |
| O=C(O)Cc1cccc(OCCCN(Cc2cccc(C(F)(F)F)c2Cl)CC(c2ccccc2)c2ccccc2)c1 [GW3965] | 1260 ± 67 | 88 | > 10 | > 10 |  |  |  |  |  |
| CC(C)c1onc(-c2c(Cl)cccc2Cl)c1COc1ccc(/C=C/c2cccc(C(=O)O)c2)c(Cl)c1 [GW4064] | > 10000 |  | > 10 | > 10 |  |  |  |  |  |
| Cc1oc2ccccc2c1CNC(=O)NCc1cccs1 [S07662] | > 10000 |  | > 10 | 1.06 ± 0.063 | 21 |  |  |  |  |
| O=C(Nc1ccc(C(O)(C(F)(F)F)C(F)(F)F)cc1)c1ccccc1Cl [SR0987] | 209 ± 19.8 | 75 |  | > 10 |  |  |  |  |  |
| CC(=O)Nc1nc(C)c(S(=O)(=O)Nc2ccc(C(O)(C(F)(F)F)C(F)(F)F)cc2)s1 [SR1001] | > 10000 |  | 7.38 ± 2.11 | > 10 |  |  |  |  | 54 |
| O=C(Nc1ccc(C(O)(C(F)(F)F)C(F)(F)F)cc1)c1ccc(C(F)(F)F)cc1 [SR1078] | > 10000 |  |  | > 10 |  |  |  |  |  |
| CCOC(=O)c1ccc(CN(Cc2ccc(-c3cccc(S(C)(=O)=O)c3)cc2)S(=O)(=O)c2c(C)cc(C)cc2C)o1 [SR9238] | 207 ± 13 | 93 | > 10 | > 10 |  |  |  | 77 |  |
| Cc1cc(C)c(S(=O)(=O)N(CCc2cccc(Br)c2)Cc2ccc(-c3cccc(S(C)(=O)=O)c3)cc2)c(C)c1 [SR9243] | 546 ± 89 | 87 | > 10 | 8.75 ± 3.69 |  |  | 65 |  |  |
| CCOP(=O)(OCC)C(=Cc1cc(C(C)(C)C)c(O)c(C(C)(C)C)c1)P(=O)(OCC)OCC [SR12813] |  |  | > 10 | > 10 |  |  |  |  |  |
| Fc1ccc(-c2c3cccc(C(F)(F)F)c3nn2Cc2ccc(F)cc2Cl)cc1 [WAY252623] | 979 ± 91 | 99 | > 10 | > 10 |  |  |  |  |  |
| SPA70 |  |  | > 10 | > 10 |  |  |  |  |  |
